The record followed here is PubChem BioAssay (NCI).

Assay in all cases: NCI tumour cell line growth inhibition, 48 h
For experiment [1], the system named is OVCAR-8 ovarian.
Experiment [2] deals with SF-539 CNS.
The test system of experiment [3] is HCC-2998 colon.
The test system of experiment [4] is OVCAR-4 ovarian.
The test system of experiment [5] is UO-31 renal.
Experiment [6] concerns TK-10 renal.
The subject of experiment [7] is RXF 393 renal.
The subject of experiment [8] is DU-145 prostate.
Experiment [9] deals with HL-60(TB) leukemia.
Experiment [10] relates to EKVX NSCLC.

The structures appear in SMILES notation.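 Following 48 hours of exposure in 96-well plates, responses at five concentrations were used to interpolate endpoints linearly. GI50 marks 50% less growth. TGI: total growth inhibition.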

Turning to `COC(=O)[C@@]12C(=O)C=CC(=O)[C@@H]1C1C(=CC2COC(C)=O)O[C@@H]2OC3(CCCCC3)O[C@H]12` (stereo partly specified), the TGI was found to be 20 µM in experiment [1]; 24.7 µM in [2]; 30.4 µM in [3]; 19.7 µM in experiment [4]; 28.3 µM in experiment [5]; 20.6 µM in [6]. For the same compound, the TGI in experiment [7] was 23.4 µM; in experiment [8], 32.2 µM; in [9], greater than 25.6 µM; in experiment [10] it was 32.8 µM.
Consider `COc1cc2c3c(n(CCCN)c(=O)c2cc1OC)-c1ccccc1C3=O`, for which the GI50 is 0.455 µM in experiment [1]; 1.25 µM in [2]; 0.531 µM in [3]; 2.29 µM in [4]; 1.8 µM in experiment [5]; 2.14 µM in experiment [6]. Moreover, the GI50 in experiment [7] is 1.04 µM; in experiment [8] it was 1.83 µM; in [9] it was 5.09 µM; in experiment [10], 3.85 µM. The TGI came to 6.65 µM in [1]; 5.23 µM in experiment [2]; 2.11 µM in experiment [3]; 12.7 µM in experiment [4]; 13.1 µM in experiment [5]; 6.31 µM in experiment [6]. The TGI in experiment [7] is 2.56 µM; in experiment [8], 4.81 µM; in [9], greater than 100 µM; in experiment [10], 10.3 µM.
Turning to `COc1ccc2oc(=O)cc(C(c3ccc[nH]3)c3ccc[nH]3)c2c1`, the GI50 in [1] is 0.116 µM; in [2], 0.0937 µM; in experiment [3], 0.0973 µM; in [4], 0.303 µM; in experiment [5], 0.127 µM; in experiment [6], 0.155 µM. The GI50 is 0.0902 µM in experiment [7], less than 0.0502 µM in experiment [9] and 0.278 µM in experiment [10]. Moreover, the TGI was 14.2 µM in experiment [1]; 0.451 µM in experiment [2]; 2.15 µM in experiment [3]; 26.3 µM in [4]; 11.9 µM in experiment [5]; 15.6 µM in experiment [6]. The TGI in [7] amounted to 0.44 µM; in experiment [8], 12.8 µM; in experiment [10], 21.5 µM.
Turning to `Clc1ccc(CSC(Cn2ccnc2)c2ccc(Cl)cc2Cl)cc1` (stereo unspecified), the GI50 in [1] is 1.6 µM; in experiment [2], 1.73 µM; in experiment [3] it was 1.64 µM; in [4] it was 1.37 µM; in experiment [5], 1.38 µM; in experiment [6] it was 1.53 µM. The GI50 in experiment [7] is 1.43 µM; in experiment [8], 2.09 µM; in [9] it was 2.15 µM; in experiment [10], 1.53 µM. For the same compound, the TGI in experiment [1] stood at 3.32 µM; in experiment [2], 3.36 µM; in experiment [3] it was 3.12 µM; in [4], 3.16 µM; in experiment [5], 4.48 µM; in experiment [6] it was 2.89 µM. For the same compound, the TGI came out at 2.76 µM in experiment [7], 4.64 µM in [8], 4.54 µM in experiment [9] and 4.55 µM in experiment [10].
As to `Cc1c2cc[n+](C)cc2c(C)c2c1sc1ccccc12`, the TGI in experiment [1] is 4.8 µM; in experiment [2] it was 2.01 µM; in experiment [3] it was 6.28 µM; in [4] it was 11.4 µM; in [5], greater than 90.7 µM; in [6], 68.5 µM. For the same compound, the TGI was 12 µM in [7], 5.07 µM in experiment [8], 28.4 µM in [9] and greater than 50.2 µM in experiment [10].
Regarding `C/C(=N\NC(=O)c1sc(=S)n(C)c1N)c1cc2ccccc2o1`, the GI50 in experiment [1] was 15.3 µM; in experiment [2], 12.9 µM; in experiment [3], 11.8 µM; in experiment [4] it was 17.9 µM; in experiment [5], 18.3 µM; in experiment [6], 15.3 µM. Further, the GI50 in experiment [7] is 13.2 µM; in experiment [8], 11.4 µM; in [9], 26 µM; in experiment [10] it was 11.9 µM. The TGI in [1] was found to be 33.8 µM; in experiment [2], 25.9 µM; in experiment [3], 27 µM; in experiment [4], 64.2 µM; in [5], 37.8 µM; in experiment [6] it was 32.7 µM. Also, the TGI in [7] was 27.8 µM; in [8] it was 27.6 µM; in experiment [9], greater than 100 µM; in experiment [10], 29.3 µM.
As for `F`, the GI50 in experiment [1] was 3250 µM; in [2], 1770 µM; in experiment [3], 2610 µM; in experiment [4], greater than 6870 µM; in experiment [5], 1790 µM; in experiment [6], 3400 µM. Besides, the GI50 in experiment [7] was 2360 µM; in [8] it was 2800 µM; in experiment [9], 2360 µM; in experiment [10], 2100 µM. Moreover, the TGI was greater than 6870 µM in [1]; 4620 µM in experiment [2]; 6190 µM in [3]; greater than 6870 µM in experiment [4]; 6220 µM in experiment [5]; greater than 6870 µM in experiment [6]. Besides, the TGI in experiment [7] was 5200 µM; in [8], greater than 6870 µM; in experiment [9] it was greater than 6870 µM; in experiment [10], 5220 µM.
`COc1cc2c(cc1O)CC[C@@H]1[C@@H]2CC[C@]2(C)[C@@H](NCCN(C)C)CC[C@@H]12`: the GI50 in [2] is 0.083 µM; in experiment [3], 0.22 µM; in experiment [4], 0.339 µM; in [5] it was 0.43 µM; in experiment [6], 0.467 µM; in experiment [7], 0.118 µM. The GI50 in experiment [8] is 0.119 µM; in [9], 0.173 µM; in experiment [10] it was 0.341 µM. Further, the TGI came out at 0.264 µM in experiment [2]; 0.716 µM in experiment [3]; 0.943 µM in [4]; 0.889 µM in experiment [5]; 0.932 µM in experiment [6]; 0.48 µM in [7]. For the same compound, the TGI is 0.423 µM in experiment [8], 0.675 µM in experiment [9] and 0.804 µM in [10].
